The values below come from US20080138838A1, “DIAGNOSIS OF ZD1839 RESISTANT TUMORS” (CEDARS-SINAI MEDICAL CENTER, priority 2002, published 2008).

For the experiment, the system named is androgen-independent human cell line CWR22R grown as a xenograft. As to the kind of experiment: ZD1839 resistant xenograft model of human prostate cancer. Type of experiment: in vivo. How it is done: The androgen-independent human cell line CWR22R was grown as a xenograft in nude mice. See Nagabhushan, et al. (1996) Cancer Res. 56:3042-3046; Agus, et al. (1999) J. Nat'l Cancer Inst. 91:1869-1876; and Bubendorf, et al. (1999) J. Nat'l Cancer Inst. 91:1758-1764. […] The mice were treated continuously with sub-therapeutic doses, and the tumors were allowed to grow for 3-4 weeks, before surgical removal of the tumors. The tumor from an individual mouse was then minced, and a small portion was then injected into a healthy nude mouse, establishing a second passage of the tumor. This mouse was then treated continuously with the same sub-therapeutic dose of ZD1839. This process was repeated 10 times, and a portion of each generation of xenograft tumor was collected. […] RNA from each generation of tumor was then isolated, and individual mRNA species were quantified using a custom Affymetrix GENECHIP® (DNA microarray chip) oligonucleotide microarray (Eos Hu03), with probes to interrogate approximately 46,000 unique mRNA transcripts. […] The gene products of the genes listed in Tables 1A-C may be particularly useful as targets in the treatment of ZD1839 resistant tumors derived from prostate cancer, small cell lung cancer, breast cancer, glioblastoma, cervical cancer, colon cancer, head and neck cancer, renal cell carcinoma, and pancreatic cancer. Prostate cancer includes epithelial neoplasms (e.g., adenocarcinoma, small cell tumors, transitional cell carcinoma, carcinoma in situ, and basal cell carcinoma), carcinosarcoma, non-epithelial neoplasms (e.g., mesenchymal and lymphoma), germ cell tumors, prostatic intraepithelial neoplasia (PIN), hormone independent prostate cancer, and metastatic prostate cancer (e.g., to bone, lung, or lymph node).

With `COc1cc2ncnc(Nc3ccc(F)c(Cl)c3)c2cc1OCCCN1CCOCC1` [ZD1839], the “response of xenograft tumors to therapeutic doses of ZD1839” value (end of the process (passaging repeated 10 times under continuous sub-therapeutic doses, nude mice)) is recorded as “fully resistant to therapeutic doses” and the “response of xenograft tumors to therapeutic doses of ZD1839” value (initially (parental CWR22R xenograft in nude mice)) was “sensitive to therapeutic doses”. The “resistance of xenograft tumors to therapeutic doses of ZD1839” value (successive passages in nude mice under continuous sub-therapeutic doses) is on record as “increased with each generation”.
